Measurements reported in US20250152580A1, “METHODS FOR TREATING IMMUNE DISEASES” (Ascentage Pharma (Suzhou) co., Ltd., priority 2022, published 2025).
“Also recorded” adds a separate entry of the source.

Test system: CD4+CD45RBhigh T transfer IBD model
Test: CD4+CD45RBhigh T transfer inflammatory bowel disease (IBD) model in CB17 SCID mice
Format: in vivo
Text: 1. Experimental Protocol for CD4^+CD45RB^high T Transfer Inflammatory Bowel Disease (IBD) Model in CB17 SCID Mice.
Balb/c mice and CB17 SCID were purchased from Zhejiang Vital River Laboratory Animal Technology Co., Ltd. (Zhejiang, China). Animals were housed and handled in a temperature-controlled environment with a 12-h light/12-h dark cycle. A total of 50 CB17 SCID mice were assigned to 5 groups by randomization based on body weight.
CD4^+ T cells were isolated from the spleens of Balb/c mice using negative magnetic bead separation kit (Miltenyi Biotec) according to the manufacturers' instructions. The CD4^+CD45RB^high T and CD4^+CD45RB^low T cells were selected by flow cytometry and used for model construction. The isolated CD4^+CD45RB^high T cells were intraperitoneally injected into 40 recipient CB17 SCID mice with 5×10^5 cells per animal. Ten mice in Group 1 (G1) were intraperitoneally injected with 5×10^5 CD4^+CD45RB^low T cells as negative control group.
40 recipient CB17 SCID mice injected with CD4^+CD45RB^high T cells were assigned to four groups (n=10 for each group): G2, vehicle control (po, qd, from day 0 to day 42); G3, 30 mg/kg Cpd. 4 (po, qd, from day 0 to day 42); G4, 30 mg/kg Cpd. 4 (po, qd, from day 14 to day 42); G5, 100 mg/kg Cpd. 4 (po, qd, from day 14 to day 42); G6, positive control, anti-mTNF-α 25 mg/kg (ip, Q3D, from day 14 to day 42).
Clinical signs of IBD were assessed every 3 day based on the scores of disease activity index (DAI) which was evaluated from two parameters using a scoring system from 0 to 4: stool consistency (0, normal stool; 1, soft but still formed stool; 2, soft and not formed stool; 3, very soft and wet stool; 4, watery diarrhea) and body weight loss (0, no body weight loos; 1, 1-5% body weight loss; 2, 6-10% body weight loss; 3, 11-20% body weight loss; 4, >20% body weight loss).
At the end of experiment, the animals were euthanized, dissected and the entire colon was quickly removed and gently cleared of feces.
The entire colon was weighed, and the total length was measured. […] Cpd.
The colons were Swiss-rolled and fixed with neutralized PFA followed by H&E staining. After that, the pathologists from WuXi clinical pathological analysis platform, who were blinded to animal ID, reviewed the H&E staining and scored. […]
At the end of the study (day 42), all the animals were sacrificed by CO2, and the colon tissues were collected and fixed in 10% formalin for pathological analysis (H&E and LFB staining). The histopathological score was evaluated microscopically in a blinded manner.

SMILES: O=C(NS(=O)(=O)c1ccc(NC[C@H]2COCCO2)c([N+](=O)[O-])c1)c1ccc(N2CCN(CC3=C(c4ccc(Cl)cc4)CC4(CCC4)CC3)CC2)cc1Oc1cnc2[nH]ccc2c1 [Cpd. 4, (S)-N-((4-(((1,4-dioxan-2-yl)methyl)amino)-3-nitrophenyl)sulfonyl)-2-((1H-pyrrolo[2,3-b]pyridin-5-yl)oxy)-4-(4-((6-(4-chlorophenyl)spiro[3.5]non-6-en-7-yl)methyl)piperazin-1-yl)benzamide]
- disease activity index (DAI), clinical score of IBD (Cpd. 4 po qd: G3 30 mg/kg day 0-42, G4 30 mg/kg day 14-42, G5 100 mg/kg day 14-42, anti-mTNF-α 25 mg/kg ip Q3D day 14-42, compared with Vehicle): significantly reducing the clinical score; also recorded: significantly reduced
- pathological score (colon, H&E) (day 42, all Cpd. 4 groups, compared with Vehicle): significantly reduced; also recorded: significantly decreased
- colon weight (end of experiment, Cpd. 4 all treatment groups (G3, G4, G5), anti-mTNF-α 25 mg/kg ip Q3D, vehicle 439.1 mg): significantly decreased
- colon length (end of experiment, Cpd. 4 in G3 (30 mg/kg day 0-42) and G5 (100 mg/kg day 14-42), anti-mTNF-α 25 mg/kg ip Q3D, vehicle 7.72 cm): significantly increased
